Results reported in BigSolDB 2.1.

CS(N)(=O)=O
Details | solubility (mole fraction)
in ethanol, 283.13 K | 0.0265
in ethanol, 288.18 K | 0.0338
in ethanol, 293.14 K | 0.0412
in ethanol, 298.17 K | 0.0484
in ethanol, 302.16 K | 0.0614
in ethanol, 308.16 K | 0.0792
in ethanol, 313.06 K | 0.1
in ethanol, 318.07 K | 0.132
in ethanol, 323.16 K | 0.181
in ethyl acetate, 283.26 K | 0.0297
in ethyl acetate, 288.16 K | 0.0329
in ethyl acetate, 293.2 K | 0.0373
in ethyl acetate, 298.1 K | 0.0419
in ethyl acetate, 303.18 K | 0.0458
in ethyl acetate, 308.24 K | 0.0507
in ethyl acetate, 313.17 K | 0.0565
in ethyl acetate, 318.07 K | 0.0627
in ethyl acetate, 323.16 K | 0.0684
in isobutanol, 283.2 K | 0.0117
in isobutanol, 288.14 K | 0.0145
in isobutanol, 293.06 K | 0.0174
in isobutanol, 298.36 K | 0.0216
in isobutanol, 303.13 K | 0.026
in isobutanol, 308.14 K | 0.0309
in isobutanol, 313.04 K | 0.0384
in isobutanol, 318.16 K | 0.0481
in isobutanol, 323.04 K | 0.0592
in isopentanol, 283.16 K | 0.00502
in isopentanol, 288.14 K | 0.00747
in isopentanol, 293.16 K | 0.0108
in isopentanol, 298.17 K | 0.0138
in isopentanol, 303.05 K | 0.018
in isopentanol, 308.06 K | 0.0228
in isopentanol, 313.15 K | 0.0288
in isopropanol, 283.06 K | 0.0139
in isopropanol, 288.17 K | 0.0178
in isopropanol, 293.14 K | 0.0221
in isopropanol, 298.08 K | 0.0277
in isopropanol, 303.06 K | 0.0333
in isopropanol, 308.14 K | 0.044
in isopropanol, 313.14 K | 0.0556
in isopropanol, 318.16 K | 0.0704
in isopropanol, 323.04 K | 0.0917
in isopropyl acetate, 283.27 K | 0.0099
in isopropyl acetate, 288.14 K | 0.0112
in isopropyl acetate, 293.16 K | 0.0127
in isopropyl acetate, 298.34 K | 0.0148
in isopropyl acetate, 303.13 K | 0.0169
in isopropyl acetate, 308.1 K | 0.0195
in isopropyl acetate, 313.3 K | 0.0219
in isopropyl acetate, 318.22 K | 0.0251
in isopropyl acetate, 323.27 K | 0.0294
in methanol, 283.27 K | 0.0738
in methanol, 288.1 K | 0.0884
in methanol, 293.2 K | 0.108
in methanol, 298 K | 0.133
in methanol, 303.3 K | 0.163
in methanol, 308.36 K | 0.2
in methanol, 313.13 K | 0.243
in methanol, 318.1 K | 0.286
in methanol, 322.2 K | 0.33
in methyl propionate, 283.27 K | 0.0251
in methyl propionate, 288.27 K | 0.026
in methyl propionate, 293.06 K | 0.0291
in methyl propionate, 298.14 K | 0.0324
in methyl propionate, 303.36 K | 0.036
in n-butanol, 283.1 K | 0.0117
in n-butanol, 288.2 K | 0.0131
in n-butanol, 293.18 K | 0.015
in n-butanol, 298.16 K | 0.0172
in n-butanol, 303.26 K | 0.0218
in n-butanol, 308.06 K | 0.027
in n-pentanol, 283.14 K | 0.00546
in n-pentanol, 288.13 K | 0.00713
in n-pentanol, 293.14 K | 0.00998
in n-pentanol, 298.12 K | 0.0156
in n-pentanol, 303.06 K | 0.0219
in n-propanol, 283.16 K | 0.0125
in n-propanol, 288.14 K | 0.0153
in n-propanol, 293.08 K | 0.0185
in n-propanol, 298.14 K | 0.0213
in n-propanol, 303.12 K | 0.0296
in n-propanol, 308.24 K | 0.0375
in n-propanol, 313.18 K | 0.0471
in n-propanol, 318.24 K | 0.0608
in n-propanol, 323.24 K | 0.08
in n-propyl acetate, 283.07 K | 0.0114
in n-propyl acetate, 288.13 K | 0.0125
in n-propyl acetate, 293.26 K | 0.0141
in n-propyl acetate, 298.04 K | 0.0163
in n-propyl acetate, 303.14 K | 0.0185
in n-propyl acetate, 308.04 K | 0.0214
in n-propyl acetate, 313 K | 0.0243
in n-propyl acetate, 318.07 K | 0.028
in n-propyl acetate, 323.17 K | 0.0322
in sec-butanol, 283.3 K | 0.00628
in sec-butanol, 288.14 K | 0.0112
in sec-butanol, 293.13 K | 0.0166
in sec-butanol, 298.06 K | 0.0224
in sec-butanol, 303.1 K | 0.0284
in sec-butanol, 308.26 K | 0.036
in sec-butanol, 313.06 K | 0.0459
